Results reported in ChEMBL document CHEMBL1201862, “PubChem BioAssay data set” (2004).
Active and inactive are the calls of the source.

Assays:
Albumin = Albumin (Bos taurus, UniProt P02769); test: Counterscreen for inhibitors of T-cell receptor (TCR)-CD3 interaction: Fluorescence-based biochemical high throughput dose response assay to identify inhibitors of T-cell receptor (TCR)-CD3 interaction using a TAMRA-labeled BSA probe.; type: functional
[1] = viability of PTEN-deleted HCT116 cells – cell-based, HCT116 PTEN knockout, dose response (AID 1047); type: functional;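 also: HCT116 colon tumor cells with PTEN knocked out; cells exposed to compound for 60 hours before readout; potency for loss of cell viability measured by luminescence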
[2] = viability of HCT116 lacking mutant beta-catenin – cell-based, human colon tumor, dose response (AID 1045); type: functional;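 also: HCT116 colon tumor cells with beta catenin knocked out; cells exposed to compound for 60 hours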
[3] = target: Induced myeloid leukemia cell differentiation protein Mcl-1 (Homo sapiens, UniProt Q07820); type: functional
Induced myeloid leukemia cell differentiation protein Mcl-1, sequence (Q07820 whole entry): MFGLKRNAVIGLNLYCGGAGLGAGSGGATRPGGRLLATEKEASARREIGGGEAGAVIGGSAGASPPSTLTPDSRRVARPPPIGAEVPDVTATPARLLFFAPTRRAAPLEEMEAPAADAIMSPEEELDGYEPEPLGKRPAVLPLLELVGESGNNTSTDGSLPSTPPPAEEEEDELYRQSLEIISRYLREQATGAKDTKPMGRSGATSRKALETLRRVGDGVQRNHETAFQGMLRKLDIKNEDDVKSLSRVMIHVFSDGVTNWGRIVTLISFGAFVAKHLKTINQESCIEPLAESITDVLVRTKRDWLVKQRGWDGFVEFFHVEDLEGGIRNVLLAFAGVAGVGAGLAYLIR

[4] = target: T1, Replicative DNA helicase DnaB (Mycobacterium tuberculosis, UniProt P9WMR3); test: DnaB intein splicing inhibitors, dose response, biochemical, cell-free fluorescence (AID 449749); type: functional
T1 sequence (P9WMR3 whole entry): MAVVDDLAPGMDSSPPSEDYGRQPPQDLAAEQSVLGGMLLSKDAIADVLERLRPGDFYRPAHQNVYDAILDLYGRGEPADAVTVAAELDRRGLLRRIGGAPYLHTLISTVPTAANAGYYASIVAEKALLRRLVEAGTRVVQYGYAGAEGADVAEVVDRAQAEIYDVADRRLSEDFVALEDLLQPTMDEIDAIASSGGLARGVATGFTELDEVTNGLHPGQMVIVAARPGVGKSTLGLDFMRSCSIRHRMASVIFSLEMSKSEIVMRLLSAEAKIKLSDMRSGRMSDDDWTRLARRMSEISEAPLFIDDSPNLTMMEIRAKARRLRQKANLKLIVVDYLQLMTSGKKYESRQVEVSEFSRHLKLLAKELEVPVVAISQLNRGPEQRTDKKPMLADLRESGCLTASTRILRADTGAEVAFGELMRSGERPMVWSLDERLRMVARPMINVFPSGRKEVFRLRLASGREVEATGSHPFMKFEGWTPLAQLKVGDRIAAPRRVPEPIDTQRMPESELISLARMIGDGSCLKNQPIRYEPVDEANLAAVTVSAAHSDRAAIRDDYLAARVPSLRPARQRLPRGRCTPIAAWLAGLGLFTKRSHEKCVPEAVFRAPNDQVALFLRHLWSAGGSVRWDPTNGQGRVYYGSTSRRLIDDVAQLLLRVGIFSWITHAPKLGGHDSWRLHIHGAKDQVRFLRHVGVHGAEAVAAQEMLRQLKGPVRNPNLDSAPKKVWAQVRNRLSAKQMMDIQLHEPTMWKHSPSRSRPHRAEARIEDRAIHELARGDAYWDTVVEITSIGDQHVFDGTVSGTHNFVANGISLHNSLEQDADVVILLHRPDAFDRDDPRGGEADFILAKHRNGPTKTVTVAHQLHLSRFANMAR

Protein RecA = target: T2, Protein RecA (Mycobacterium tuberculosis, UniProt P9WHJ3); test: Fluorescence Cell-Free Homogeneous Dose Retest to Identify Inhibitors of RecA-Intein Splicing Activity. [Related pubchem assays (depositor defined):AID2097, AID2223, AID489010, AID492950]; type: functional
T2 sequence (P9WHJ3 whole entry): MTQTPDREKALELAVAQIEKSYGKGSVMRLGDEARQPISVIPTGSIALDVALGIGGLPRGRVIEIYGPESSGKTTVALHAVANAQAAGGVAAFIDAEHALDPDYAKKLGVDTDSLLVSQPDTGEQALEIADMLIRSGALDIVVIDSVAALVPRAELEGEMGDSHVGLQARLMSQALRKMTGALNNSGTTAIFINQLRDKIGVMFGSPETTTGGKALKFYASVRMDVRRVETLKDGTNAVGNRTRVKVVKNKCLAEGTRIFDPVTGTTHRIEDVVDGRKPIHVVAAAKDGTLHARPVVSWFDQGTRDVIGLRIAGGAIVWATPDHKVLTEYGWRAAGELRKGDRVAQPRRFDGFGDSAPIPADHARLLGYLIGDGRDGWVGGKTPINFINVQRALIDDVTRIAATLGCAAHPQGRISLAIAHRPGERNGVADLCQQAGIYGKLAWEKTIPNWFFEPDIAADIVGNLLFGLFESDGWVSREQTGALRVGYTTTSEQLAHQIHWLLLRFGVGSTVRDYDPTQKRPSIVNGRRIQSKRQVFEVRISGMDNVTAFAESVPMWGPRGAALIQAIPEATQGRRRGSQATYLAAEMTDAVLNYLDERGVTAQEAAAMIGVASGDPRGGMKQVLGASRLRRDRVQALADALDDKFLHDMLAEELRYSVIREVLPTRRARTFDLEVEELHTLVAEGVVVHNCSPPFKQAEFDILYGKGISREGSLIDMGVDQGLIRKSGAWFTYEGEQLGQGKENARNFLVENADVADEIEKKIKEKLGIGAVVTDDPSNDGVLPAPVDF

[5] = viability loss in HEK293T cells – cell-based, cherry-picks, cytotoxicity control for HIV Vif inhibitor project, dose response (AID 652208); type: functional
HEK293 [6] = test: cells; settings: Homo sapiens
HEK293 [7] = test: cells; settings: Homo sapiens; remark: listed apart in the source
[8] = NIH-3T3 fibroblast cytotoxicity, dose response, cytotoxicity control, cell-based, fluorescence, Alamar Blue, secondary assay (AID 2327); type: functional;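 also: NIH-3T3 mouse fibroblasts cultured with fluconazole at 8 µg/mL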
[9] = tested on: Streptococcus sp. 'group A'; test: Streptococcus pyogenes SK(-)GAS viability under kanamycin – luminescence, BacTiterGlo, confirmation, counter-screen for streptokinase expression inhibitor project, dose response (AID 1900); type: functional, organism-based
Streptokinase A = target: T3, Streptokinase A (Streptococcus pyogenes serotype M1, UniProt P10520); test: viability-normalized secreted streptokinase activity reduction – plasminogen activation absorbance, OD405, dose response (AID 1914); type: functional, Streptococcus pyogenes M1 GAS;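 also: secreted streptokinase activity via plasminogen activation per viability signal from cell pellet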
T3 sequence (P10520 whole entry): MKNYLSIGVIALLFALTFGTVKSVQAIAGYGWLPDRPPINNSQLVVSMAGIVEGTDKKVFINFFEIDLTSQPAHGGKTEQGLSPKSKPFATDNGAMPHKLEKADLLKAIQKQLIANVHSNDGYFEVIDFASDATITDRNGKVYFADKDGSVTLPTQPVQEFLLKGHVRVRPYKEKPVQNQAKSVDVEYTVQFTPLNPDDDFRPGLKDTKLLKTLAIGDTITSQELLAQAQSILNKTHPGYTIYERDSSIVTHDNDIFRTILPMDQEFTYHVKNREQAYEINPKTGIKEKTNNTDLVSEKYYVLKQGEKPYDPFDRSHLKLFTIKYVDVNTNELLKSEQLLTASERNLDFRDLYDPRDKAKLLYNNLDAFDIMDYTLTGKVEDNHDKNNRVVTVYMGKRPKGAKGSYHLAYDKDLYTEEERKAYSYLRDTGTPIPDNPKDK

[10] = fluconazole-exposed Candida albicans growth modulators – fluorescence, retest, confirmation (AID 2467); type: functional, cell-based
Streptococcus = test: GAS UMAA2166 growth inhibition – luminescence, BacTiterGlo, counter-screen for streptokinase expression inhibitor project, dose response (AID 1915); type: functional, organism-based;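 also: potency for reduction of bacterial viability or growth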
[11] = target: Heat shock protein HSP 90-alpha (Homo sapiens, UniProt P07900); type: functional, organism-based
[12] = target: T4, Polyadenylate-binding protein 1 (Homo sapiens, UniProt P11940); test: MLLE binding blockers, Cy5 peptide tracer – biochemical, fluorescence polarization, Cy5-PAM2 peptide, secondary, miRNA deadenylation inhibitor project, dose response (AID 602260); type: functional; settings: read-out: IC50_Mean
T4 sequence (P11940 whole entry): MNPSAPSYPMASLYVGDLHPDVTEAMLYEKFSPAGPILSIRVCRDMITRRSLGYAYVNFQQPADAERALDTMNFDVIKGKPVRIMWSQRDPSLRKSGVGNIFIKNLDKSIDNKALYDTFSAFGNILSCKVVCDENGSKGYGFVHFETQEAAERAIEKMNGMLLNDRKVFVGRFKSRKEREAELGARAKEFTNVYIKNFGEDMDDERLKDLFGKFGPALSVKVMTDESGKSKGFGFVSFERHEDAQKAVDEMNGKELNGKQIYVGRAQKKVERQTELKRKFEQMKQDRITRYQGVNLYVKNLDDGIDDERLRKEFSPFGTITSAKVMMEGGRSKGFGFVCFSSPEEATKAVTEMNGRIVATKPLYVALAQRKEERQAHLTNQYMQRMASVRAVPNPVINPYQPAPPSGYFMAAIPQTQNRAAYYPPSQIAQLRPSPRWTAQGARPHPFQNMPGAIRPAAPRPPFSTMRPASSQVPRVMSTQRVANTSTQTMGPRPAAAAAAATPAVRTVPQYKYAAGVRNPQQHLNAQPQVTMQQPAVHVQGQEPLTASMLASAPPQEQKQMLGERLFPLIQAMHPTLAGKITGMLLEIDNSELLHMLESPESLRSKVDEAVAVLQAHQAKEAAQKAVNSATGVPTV

[13] = reduction of Shn3 3'UTR-driven luciferase in osteoblasts – cell-based, Clone20 osteoblasts, firefly luciferase, cherry-picked, dose response (AID 624132); type: functional;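 also: firefly luciferase luminescence from reporter carrying the Shn3 3'UTR in osteoblasts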
[14] = target: T4, Polyadenylate-binding protein 1; test: MLLE domain peptide-binding blockers, IC50 – biochemical, fluorescence polarization, FITC-PAM2 peptide, dose response (AID 602259); type: functional; settings: read-out: IC50_Mean
[15] = loss of viability in HepG2 cells – cell-based, CellTiter-Glo, cherry-picked, cytotoxicity control for Shn3 inhibitor project, dose response (AID 624134); type: functional
[16] = non-specific 3'UTR reporter inhibition in Clone20-Shn3RL – cell-based, Renilla luciferase, cherry-picked, counter-screen for Shn3 inhibitor project, dose response (AID 624133); type: functional
cells [17] = type: functional, cell-based
[18] = target: T5, Trace amine-associated receptor 1 (Homo sapiens, UniProt Q96RJ0); test: Fluorescence-based cell-based high throughput dose response assay to identify agonists of the human trace amine associated receptor 1 (TAAR1).; type: functional
T5 sequence (Q96RJ0 whole entry): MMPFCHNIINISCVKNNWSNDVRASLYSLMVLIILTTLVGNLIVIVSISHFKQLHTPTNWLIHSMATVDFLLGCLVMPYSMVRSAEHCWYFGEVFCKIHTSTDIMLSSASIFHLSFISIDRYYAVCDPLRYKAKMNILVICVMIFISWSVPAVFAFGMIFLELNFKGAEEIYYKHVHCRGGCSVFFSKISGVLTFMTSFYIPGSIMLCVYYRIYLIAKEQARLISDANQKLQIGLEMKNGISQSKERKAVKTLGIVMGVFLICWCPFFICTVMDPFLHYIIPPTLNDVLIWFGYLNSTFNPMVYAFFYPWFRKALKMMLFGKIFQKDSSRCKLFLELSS

[19] = target: T5, Trace amine-associated receptor 1; test: Counterscreen for agonists of the human trace amine associated receptor 1 (hTAAR1): Fluorescence-based cell-based high throughput dose response assay to identify hTAAR1 agonist that also desensitize TAAR1 receptor response.; type: functional
cells [20] = type: functional, cell-based; remark: listed apart in the source
Large T antigen = Large T antigen (Simian virus 40, UniProt P03070); type: functional, Betapolyomavirus macacae;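 also: Confirmatory-stage PubChem screen for compounds that inhibit SV40 T antigen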
Large T antigen, sequence (P03070 whole entry): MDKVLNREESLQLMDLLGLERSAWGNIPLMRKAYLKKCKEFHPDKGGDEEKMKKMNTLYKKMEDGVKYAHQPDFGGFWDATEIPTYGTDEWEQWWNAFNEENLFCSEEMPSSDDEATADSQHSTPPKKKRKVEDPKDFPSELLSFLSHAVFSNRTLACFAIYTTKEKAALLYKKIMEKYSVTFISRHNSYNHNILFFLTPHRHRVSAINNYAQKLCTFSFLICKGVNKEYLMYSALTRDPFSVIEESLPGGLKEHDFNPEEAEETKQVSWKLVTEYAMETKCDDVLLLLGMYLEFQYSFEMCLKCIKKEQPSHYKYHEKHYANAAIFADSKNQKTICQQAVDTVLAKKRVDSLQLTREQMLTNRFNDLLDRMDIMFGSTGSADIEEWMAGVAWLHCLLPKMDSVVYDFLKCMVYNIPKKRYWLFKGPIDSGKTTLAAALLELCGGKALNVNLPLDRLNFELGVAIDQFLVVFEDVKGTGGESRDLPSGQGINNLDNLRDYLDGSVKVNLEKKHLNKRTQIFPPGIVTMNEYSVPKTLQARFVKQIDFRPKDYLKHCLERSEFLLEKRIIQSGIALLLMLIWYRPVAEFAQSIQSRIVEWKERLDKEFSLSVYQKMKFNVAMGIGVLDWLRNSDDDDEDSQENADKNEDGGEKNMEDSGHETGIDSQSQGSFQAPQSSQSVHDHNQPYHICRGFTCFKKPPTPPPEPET

[21] = target: T6, Endoribonuclease toxin MazF (Escherichia coli K-12, UniProt P0AE70); test: activation of MazEF endoribonuclease cleavage – biochemical, fluorescence, single-stranded RNA substrate, uHTS hits, dose response (AID 588481); type: functional
T6 sequence (P0AE70 whole entry): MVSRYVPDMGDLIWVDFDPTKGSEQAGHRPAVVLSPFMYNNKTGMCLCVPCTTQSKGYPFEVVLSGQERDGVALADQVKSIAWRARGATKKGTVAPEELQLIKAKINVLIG

[22] = target: T6, Endoribonuclease toxin MazF; test: substrate-only fluorescence increase artefacts – biochemical, single-stranded RNase substrate, counter-screen for MazEF activator project, dose response (AID 588502); type: functional
[23] = target: T7, Sentrin-specific protease 1 (Homo sapiens, UniProt Q9P0U3); test: SENP1 catalytic domain blockers, concentration series – biochemical, kinetic FRET, dose response (AID 651697); type: functional; settings: read-out: IC50_Mean
T7 sequence (Q9P0U3 whole entry): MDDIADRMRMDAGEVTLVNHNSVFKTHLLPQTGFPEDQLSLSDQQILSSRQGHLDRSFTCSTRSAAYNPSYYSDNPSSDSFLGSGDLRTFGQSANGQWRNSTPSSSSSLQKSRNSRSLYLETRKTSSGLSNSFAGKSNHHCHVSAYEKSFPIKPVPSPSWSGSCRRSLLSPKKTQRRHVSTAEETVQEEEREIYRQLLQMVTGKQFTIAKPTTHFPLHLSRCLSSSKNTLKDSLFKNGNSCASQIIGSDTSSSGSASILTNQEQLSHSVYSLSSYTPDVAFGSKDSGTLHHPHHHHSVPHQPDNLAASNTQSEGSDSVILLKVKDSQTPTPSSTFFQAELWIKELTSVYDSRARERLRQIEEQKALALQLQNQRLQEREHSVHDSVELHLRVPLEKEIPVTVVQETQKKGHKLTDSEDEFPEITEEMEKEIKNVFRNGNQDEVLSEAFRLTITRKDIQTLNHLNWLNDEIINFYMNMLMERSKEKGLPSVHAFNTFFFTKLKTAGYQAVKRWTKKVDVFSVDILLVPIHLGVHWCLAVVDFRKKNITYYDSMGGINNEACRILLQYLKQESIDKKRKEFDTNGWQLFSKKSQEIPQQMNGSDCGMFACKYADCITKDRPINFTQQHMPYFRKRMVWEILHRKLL

[24] = target: T7, Sentrin-specific protease 1; test: Dose response confirmation of small molecule inhibitors of the catalytic domain of the SUMO protease, SENP1 in a FRET assay.; type: functional; settings: read-out: IC50_Mean

Albumin, sequence (P02769 whole entry): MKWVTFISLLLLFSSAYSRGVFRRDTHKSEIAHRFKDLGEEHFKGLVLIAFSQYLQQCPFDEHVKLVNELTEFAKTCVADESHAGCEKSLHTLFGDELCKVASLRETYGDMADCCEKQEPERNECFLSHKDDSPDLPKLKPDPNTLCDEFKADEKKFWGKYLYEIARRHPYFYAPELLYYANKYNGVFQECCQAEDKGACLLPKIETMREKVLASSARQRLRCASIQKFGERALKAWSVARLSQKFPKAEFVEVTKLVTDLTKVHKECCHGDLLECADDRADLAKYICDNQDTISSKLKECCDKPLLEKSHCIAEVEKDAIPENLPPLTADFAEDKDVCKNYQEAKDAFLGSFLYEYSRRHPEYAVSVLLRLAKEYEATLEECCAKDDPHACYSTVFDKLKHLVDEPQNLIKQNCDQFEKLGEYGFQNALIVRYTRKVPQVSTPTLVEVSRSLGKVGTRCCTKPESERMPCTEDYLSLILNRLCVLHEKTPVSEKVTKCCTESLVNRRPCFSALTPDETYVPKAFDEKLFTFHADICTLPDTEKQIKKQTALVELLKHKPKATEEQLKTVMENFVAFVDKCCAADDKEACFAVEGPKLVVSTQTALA

Compound: CCC1=NN(C(=O)c2cccc([N+](=O)[O-])c2)C(O)(c2ccc(C)cc2)C1 (stereo unspecified)
- IC50 (Albumin): > 94.1 µM (inactive)

Compound: COc1ccc(NC(=O)Cn2ncc(Cl)c(Cl)c2=O)cc1S(=O)(=O)N1CCOCC1
- EC50 [1]: 7.27 µM (active)
- EC50 [2]: 5.71 µM (active)
- IC50 [3]: 6.5 µM (active)
- AC50 [4]: 44.2 µM (active)
- EC50 (Protein RecA): 10.1 µM (active)
- AC50 [5]: 10.8 µM (active)
- EC50 (HEK293 [6]): > 59.6 µM (inactive)
- EC50 (HEK293 [7]): > 59.6 µM (inactive)

Compound: Cc1ccc(C(c2cc(Cl)c3cccnc3c2O)N2CCN(C)CC2)cc1 (stereo unspecified)
- EC50 [8]: 3.84 µM (inconclusive)
- EC50 [9]: 1.49 µM (active)
- EC50 (Streptokinase A): > 150 µM (not active)
- EC50 [10]: 0.374 µM (active)
- EC50 (Streptococcus): 15.3 µM (active)
- AC50 [4]: > 380 µM (inactive)
- AC50 [11]: 1.59 µM (active)
- EC50 (Protein RecA): 1.96 µM (active)
- IC50 [12]: > 66 µM (inactive)
- AC50 [13]: 5.54 µM (active)
- IC50 [14]: > 66 µM (inactive)
- AC50 [15]: 35.2 µM (active)
- AC50 [16]: 16.4 µM (active)
- AC50 [5]: > 52 µM (inactive)

Compound: CCCOC1CCCN(C(=O)c2cc(Cl)c(Cl)cc2C(=O)O)C1 (stereo unspecified)
- IC50 (cells [17]): > 29.9 µM (inactive)
- EC50 [18]: 8.64 µM (active)
- IC50 [19]: > 29.9 µM (inactive)
- EC50 (cells [20]): > 29.9 µM (inactive)

Compound: CC(C)(C)OC(=O)N/N=C/c1ccc(N2CCOCC2)s1
- IC50 (Large T antigen): 13.2 µM (active)
- EC50 [21]: > 99 µM (inactive)
- EC50 [22]: 46.9 µM (inactive)
- IC50 [23]: 8.28 µM (active)
- IC50 [24]: 11.9 µM (active)

Compound: C/C(=N\CCc1ccccc1)C1=C(O)CCC1=O
- IC50 (cells [17]): > 29.9 µM (inactive)
- EC50 [18]: 1.94 µM (active)
- IC50 [19]: 8.63 µM (active)
- EC50 (cells [20]): > 29.9 µM (inactive)
